Laboratory results reported in PubChem BioAssay AID1259407 (Chemical Carcinogenesis Research Information System (CCRIS), 2018).
Active and inactive are the calls of the source. The rule behind the calls is not given here.

Tested on: CCRIS mutagenicity, Ames/micronucleus/aberration tests
Test: CCRIS mutagenicity studies
Settings: Test System: AMES SALMONELLA TYPHIMURIUM
[1] = Strain/Indicator: TA97, Metabolic Activation: HAMSTER, LIVER, S-9, AROCLOR 1254 (10%), Method: PREINCUBATION
[2] = Strain/Indicator: TA97, Metabolic Activation: NONE, Method: PREINCUBATION
[3] = Strain/Indicator: TA97, Metabolic Activation: RAT, LIVER, S-9, AROCLOR 1254 (10%), Method: PREINCUBATION
[4] = Strain/Indicator: TA98, Metabolic Activation: HAMSTER, LIVER, S-9, AROCLOR 1254 (10%), Method: PREINCUBATION
[5] = Strain/Indicator: TA98, Metabolic Activation: NONE, Method: PREINCUBATION
[6] = Strain/Indicator: TA98, Metabolic Activation: RAT, LIVER, S-9, AROCLOR 1254 (10%), Method: PREINCUBATION
[7] = Strain/Indicator: TA100, Metabolic Activation: HAMSTER, LIVER, S-9, AROCLOR 1254 (10%), Method: PREINCUBATION
[8] = Strain/Indicator: TA100, Metabolic Activation: NONE, Method: PREINCUBATION
[9] = Strain/Indicator: TA100, Metabolic Activation: RAT, LIVER, S-9, AROCLOR 1254 (10%), Method: PREINCUBATION
[10] = Strain/Indicator: TA1535, Metabolic Activation: HAMSTER, LIVER, S-9, AROCLOR 1254 (10%), Method: PREINCUBATION
[11] = Strain/Indicator: TA1535, Metabolic Activation: NONE, Method: PREINCUBATION
[12] = Strain/Indicator: TA1535, Metabolic Activation: RAT, LIVER, S-9, AROCLOR 1254 (10%), Method: PREINCUBATION
[13] = Strain/Indicator: TA97, Metabolic Activation: NONE, Method: STANDARD PLATE
[14] = Strain/Indicator: TA98, Metabolic Activation: NONE, Method: STANDARD PLATE
[15] = Strain/Indicator: TA100, Metabolic Activation: NONE, Method: STANDARD PLATE
[16] = Strain/Indicator: TA102, Metabolic Activation: NONE, Method: STANDARD PLATE

| SMILES | mutagenic call [4] | mutagenic call [5] | mutagenic call [6] | mutagenic call [7] | mutagenic call [8] | mutagenic call [9] | mutagenic call [10] | mutagenic call [11] | mutagenic call [12] | mutagenic call [14] | mutagenic call [15] | also measured |
| --- | --- | --- | --- | --- | --- | --- | --- | --- | --- | --- | --- | --- |
| CC(COc1ccccc1)N(CCCl)Cc1ccccc1 (stereo not given) | active; positive | active; positive | active; positive | active; positive | active; positive | active; positive | active; positive | inactive; negative | active; positive | – | – | mutagenic call [1]: active; positive; mutagenic call [2]: active; positive; mutagenic call [3]: active; positive |
| CC(=O)c1cc2c(cc1C)C(C)(C)C(C)C2C(C)C (stereo not given) | – | – | – | – | – | – | – | – | – | inactive; negative | inactive; negative | mutagenic call [13]: inactive; negative; mutagenic call (Strain/Indicator: TA97, Metabolic Activation: RAT LIVER S-9, AROCLOR 1254, Method: STANDARD PLATE): inactive; negative; mutagenic call (Strain/Indicator: TA98, Metabolic Activation: RAT LIVER S-9, AROCLOR 1254, Method: STANDARD PLATE): inactive; negative; mutagenic call (Strain/Indicator: TA100, Metabolic Activation: RAT LIVER S-9, AROCLOR 1254, Method: STANDARD PLATE): inactive; negative; mutagenic call [16]: inactive; negative; mutagenic call (Strain/Indicator: TA102, Metabolic Activation: RAT LIVER S-9, AROCLOR 1254, Method: STANDARD PLATE): inactive; negative |
| Cc1cc2nc3cc(C)c(N)cc3[n+](-c3ccccc3)c2cc1N | – | – | – | – | – | – | – | – | – | – | – | mutagenic call (Strain/Indicator: TA98, Method: PREINCUBATION): active; positive; mutagenic call (Strain/Indicator: TA100, Method: PREINCUBATION): active; positive |
| CCCCC(CC)COC(=O)CCCCC(=O)O (stereo not given) | inactive; negative | inactive; negative | inactive; negative | inactive; negative | inactive; negative | inactive; negative | inactive; negative | inactive; negative | inactive; negative | inactive; negative | inactive; negative | mutagenic call [13]: inactive; negative; mutagenic call (Strain/Indicator: TA97, Metabolic Activation: RAT, LIVER, S-9, AROCLOR 1254, Method: STANDARD PLATE): inactive; negative; mutagenic call (Strain/Indicator: TA97, Metabolic Activation: RAT, LIVER, S-9, DI(2-ETHYLHEXYL)PHTHALATE, Method: STANDARD PLATE): inactive; negative; mutagenic call (Strain/Indicator: TA98, Metabolic Activation: RAT, LIVER, S-9, AROCLOR 1254, Method: STANDARD PLATE): inactive; negative; mutagenic call (Strain/Indicator: TA98, Metabolic Activation: RAT, LIVER, S-9, DI(2-ETHYLHEXYL)PHTHALATE, Method: STANDARD PLATE): inactive; negative; mutagenic call (Strain/Indicator: TA100, Metabolic Activation: RAT, LIVER, S-9, AROCLOR 1254, Method: STANDARD PLATE): inactive; negative; mutagenic call (Strain/Indicator: TA100, Metabolic Activation: RAT, LIVER, S-9, DI(2-ETHYLHEXYL)PHTHALATE, Method: STANDARD PLATE): inactive; negative; mutagenic call [16]: inactive; negative; mutagenic call (Strain/Indicator: TA102, Metabolic Activation: RAT, LIVER, S-9, AROCLOR 1254, Method: STANDARD PLATE): inactive; negative; mutagenic call (Strain/Indicator: TA102, Metabolic Activation: RAT, LIVER, S-9, DI(2-ETHYLHEXYL)PHTHALATE, Method: STANDARD PLATE): inactive; negative; mutagenic call (Strain/Indicator: TA1537, Metabolic Activation: HAMSTER, LIVER, S-9, AROCLOR 1254 (10%), Method: PREINCUBATION): inactive; negative; mutagenic call (Strain/Indicator: TA1537, Metabolic Activation: NONE, Method: PREINCUBATION): inactive; negative; mutagenic call (Strain/Indicator: TA1537, Metabolic Activation: RAT, LIVER, S-9, AROCLOR 1254 (10%), Method: PREINCUBATION): inactive; negative |
| ClCc1cc2c3ccccc3cc3ccc4cccc1c4c32 | – | – | – | – | – | – | – | – | – | active; positive | active; positive | – |
| O=C(OCC1CO1)c1cccc(C(=O)OCC2CO2)c1 (stereo not given) | inactive; negative | inactive; negative | inactive; negative | active; positive | active; positive | active; positive | active; positive | active; positive | active; positive | – | – | mutagenic call [1]: inactive; negative; mutagenic call [2]: active; positive; mutagenic call [3]: inactive; negative |
| O=[N+]([O-])c1cccc(-c2ccc(O)c([N+](=O)[O-])c2)c1 | – | active; positive | – | – | – | – | – | – | – | – | – | – |
| Cc1c(N=[N+]([O-])c2cccc([N+](=O)[O-])c2C)cccc1[N+](=O)[O-] | – | inactive; negative | – | – | inactive; negative | – | – | – | – | – | – | mutagenic call (Strain/Indicator: TA98, Metabolic Activation: RAT, LIVER, S-9, PHENOBARBITAL AND 5,6-BENZOFLAVONE, Method: PREINCUBATION): inactive; negative; mutagenic call (Strain/Indicator: TA100, Metabolic Activation: RAT, LIVER, S-9, PHENOBARBITAL AND 5,6-BENZOFLAVONE, Method: PREINCUBATION): inactive; negative |
